Results: US20220249538A1, “TREATMENT AGENT FOR SEX HORMONE-INSENSITIVE GREB1-POSITIVE TUMORS” (OSAKA UNIVERSITY, priority 2019, published 2022)
d = 2'-deoxy (DNA); r = 2'-OH (RNA)

Legend:
[1] = tested on: Huh6 cells; assay: mRNA expression in Huh6 cells by real-time PCR; format: cell-based, human; details: as in mRNA expression of Axin2
Description: Next, the mechanism for regulating expression of GREB1 in hepatoblastoma by YAP and c-Met was investigated. […] However, in Huh6 cells and HepG2 cells, knockdown of YAP/TAZ had no effect on expression of GREB1 (see b of FIG. 13). Further, when Huh6 cells was treated with CHIR99021, or treated with XMU-MP1, which has an inhibitory effect on Mst1/2 kinase and is an activator of YAP, or treated with CHIR99021 and XMU-MP1 in combination, mRNA expression of GREB1 was suppressed as in mRNA expression of Axin2 (see c of FIG. 13).

[2] = tested on: mouse fetal liver cells (BMEL); assay: mRNA expression in BMEL cells by real-time PCR; format: cell-based; details: CHIR99021 final concentration 5 μM
[3] = tested on: HLE, SNU-387 SNU-449, and Huh7; assay: mRNA expression in hepatocellular cancer cells after CHIR99021 by real-time PCR; format: cell-based, human; details: SNU-387, SNU-449, Huh7, CHIR99021 final concentration 5 μM
[4] = tested on: MCF7; assay: mRNA expression in MCF7 cells by real-time PCR; format: cell-based, human
[5] = tested on: HepG2 cells; assay: mRNA (real-time PCR) and protein (lysate probing) expression in HepG2 cells; format: cell-based, human
Description: (§1) Using RNAiMAX (Life Technologies/Thermo Fisher Scientific), HepG2 cells, Huh6 cells, Hep3B cells, JHH7 cells, and SKMEL28 cells were each transfected with each siRNA (10 nm). In experiments, the cells were used from 48 to 120 hours after transfection.

[6] = tested on: HepG2 cells; assay: Cell viability by propidium iodide and Hoechst33342 staining; format: cell-based, human; details: medium without Z-VAD, 0.1% FBS, 2 days; PI and Hoechst33342
Description: Further, HepG2 cells were transfected with control siRNA or siRNAs (GREB1 #1 siRNA and GREB1 #2 siRNA), cultured in media (caspase inhibitor Z-VAD was contained in one condition, and not contained in the other condition) containing 0.1% FBS for 2 days, stained with propidium iodide (PI, […]) and Hoechst33342 (nucleus), and the cell viability was evaluated.
Further, HepG2 cells transfected with control siRNA, GREB1 siRNA (GREB1 #2 siRNA), p15 siRNA, or siRNA of GREB1 (GREB1 #2 siRNA) and siRNA of p15 in combination were cultured in media (caspase inhibitor Z-VAD was contained in one condition, and not contained in the other condition) containing 0.1% FBS for 2 days, stained with propidium iodide (PI) and Hoechst33342, and the cell viability was calculated.

[7] = tested on: GREB1; assay: GREB1 expression in HepG2 cells after GREB1 siRNA or GREB1 ASO (cell lysates probed with anti-GREB1 antibody); format: cell-based, human; details: siRNA 10 nm, lysate probing
Description: Phosphorothioated I5-mer antisense oligonucleotides (ASOs) containing AmNA monomers were prepared (synthesized by GeneDesign (Ibaraki, Japan)). In the present specification, “hGREB1-6424-AmNA (15)” is sometimes simply referred to as “ASO-6424” or “GREB1 ASO-6424”. Similar abbreviations are used for describing other ASOs. Using RNAiMAX (Invitrogen, Carlsbad, Calif., USA), HepG2 or COLO679 cells were transfected with 10 nM of ASOs. In experiments, the cells were used from 36 to 48 hours after transfection.
as §1
As reported previously, knockdown of β-catenin decreased HepG2 cell proliferation (see a of FIG. 3). […] Thus, to elucidate the role of GREB1 in HepG2 cells, knockdown of GREB1 was carried out using two different siRNAs.
Next, HepG2 cells were transfected with control ASO or each of the above-described GREB1 ASOs, cultured in a medium containing 10% FBS for 2 days, and the cell lysates were probed with anti-GREB1 antibody and anti-HSP90 antibody.

[8] = tested on: HepG2 cells; assay: Cell proliferation assay, two-dimensional culture (plastic dish), Cyquant; format: cell-based, human
Description: Cells were seeded on a plate at 1.0×10^4 cells/mL, and, after 12 hours, the medium was replaced with a medium containing 10% serum. While the cell number was counted every 48 hours, the cells were cultured up to 10 days. The measurement of the cell number was performed using Cyquant NF assays (Life Technologies/Thermo Fisher Scientific) according to protocols recommended by the manufacturer.
Mock HepG2 cells (having a vector only, containing no GREB1) or GREB1-transduced HepG2 cells were transfected with control siRNA or two different types of siRNA (GREB1 #1 siRNA and GREB1 #2 siRNA), then two-dimensional culture (plastic dish culture) was performed, and a relative cell number was calculated by Cyquant assay overtime. As a result, in GREB1 knockdown, proliferative capacity of HepG2 cells in two-dimensional culture was reduced. However, when GREB1-transduced HepG2 cells were transfected with siRNAs against GREB1 (GREB1 #1 siRNA/GREB1 and GREB1 #2 siRNA/GREB1), the proliferative capacity of HepG2 cells was not affected (see a of FIG. 4).

[9] = tested on: liver tumors of BYM mice; assay: Tumorigenesis by HTVi (hydrodynamic tail vein injection), BYM mice with GREB1 shRNA; format: in vivo
Description: In the presence of Greb1 shRNA #3 (SEQ ID NO: 8) (20 μg) or control, and pLIVE-SB13 (8 μg), pT2BH-YAPS127A (20 μg), pT2BH-ΔN90 β-catenin-mutLuc3 (20 μg), pT3-EF1a-cMET (20 μg), and GFP2ALuc were diluted in 2.5 ml of physiological saline, and injected into tail veins of 8- to 9-week old male wild-type C57BL6/N mice within 5 to 7 seconds. Livers of the mice were collected at a predetermined time after injection (or at occurrence of the tumor), and various parameters associated with tumorigenesis were assessed. Specifically, this assessment was performed according to techniques described in Tao, J. et al., (2014). Gastroenterology 147, 690-701 and Tward, A. D. et al, (2007). Proc Natl Acad Sci USA 104, 14771-14776. In this evaluation, ΔN90 β-catenin refers to a β-catenin mutant in which amino acids at positions 1 to 90 of human ft-catenin were deleted, and YAPS127A refers to a YAP mutant in which serine at positon 127 of YAP was substituted by alanine.
Further, ΔN90 β-catenin, YapS127A, and c-Met were administered to mice together with GREB1 shRNA, and the livers were collected 7 to 8 weeks after administration. As a result, in mice transduced with ΔN90 β-catenin, YAPS127A, and c-Met (BYM mice, control), a plurality of nodules were observed on the entire surfaces of the livers (see a of FIG. 14). On the other hand, in mice transduced with GREB1 shRNA together with ΔN90 β-catenin, YAPS127A, and c-Met (BYM GREB1 KD mice), the nodules in the liver were suppressed (see a of FIG. 14).

[10] = CHIR99021 in the presence or absence of ICI-182,786
[11] = BYM+ GREB1 shRNA mouse vs BYM mouse without knockdown
[12] = tumor nodules of BYM GREB1 KD mice K2 and K4, real-time PCR

## Cc1c[nH]c(-c2cnc(NCCNc3ccc(C#N)cn3)nc2-c2ccc(Cl)cc2Cl)n1 [CHIR99021]
[1]
  mRNA expression of GREB1: suppressed
[2]
  expression of GREB1: increased
[3]
  expression of Axin2: increased
  expression of GREB1: not increased
[4]; [10]
  expression of Axin2: increased
  expression of GREB1: not increased

## C[C@]12CC[C@@H]3c4ccc(O)cc4C[C@@H](CCCCCCCCC[S+]([O-])CCCC(F)(F)C(F)(F)F)[C@H]3[C@@H]1CC[C@@H]2O (stereo partly drawn) [ICI-182,786]
[5]; HepG2 cells treated for 48 hours, real-time PCR
  expression level of GREB1 mRNA: not affected
[4]; ICI-182,786 treatment, real-time PCR
  expression of GREB1: dramatically decreased
[4]; estrogen receptor antagonist treatment
  mRNA expression of PAI-1: suppresses

## CN1C(=O)c2sccc2N(C)c2nc(Nc3ccc(S(N)(=O)=O)cc3)ncc21 [XMU-MP1]
[1]
  mRNA expression of GREB1: suppressed

## GREB1 #1 siRNA: siRNA against human GREB1; sense 5′-GCCAUUCGUGUGCUUCCAUTT-3′ (SEQ ID NO: 4), antisense SEQ ID NO: 5 (antisense AUGGAAGCACACGAAUGGCTT; sugars from the 5' end r19 d2, backbone not given here)
[6]
  cell death of HepG2 cells: elevated cell death
[7]
  knockdown of GREB1 (anti-GREB1 antibody): knocked down
[8]; GREB1-transduced HepG2 cells
  proliferative capacity of HepG2 cells in two-dimensional culture: not affected
[8]; mock HepG2 cells, relative cell number by Cyquant over time
  proliferative capacity of HepG2 cells in two-dimensional culture: reduced
[5]; HepG2 cells, 0.1% FBS for 2 days, lysate probing
  amounts of cleaved caspase 3 and PARP1: increased
[5]; HepG2 cells, GREB1 knockdown, lysate probing
  expressions of β-catenin and Axin2: no effect
[5]; HepG2 cells, medium containing 1% FBS for 1 day, lysate probing
  expression of cell cycle regulators cyclinA, cyclinB, phosphorylated histone H3: decreases

## GREB1 shRNA: shRNA against mouse Greb1, encoding DNA SEQ ID NO: 8, given as pT2BH-GFP2ALuc plasmid by hydrodynamic injection (DNA CCGGCTACTTTGTTAGCAATGATATCTCGAGATATCATTGCTAACAAAGTAGTTTTTTG)
[9]; BYM GREB1 KD mice K1 to K6
  incidence rate of tumorigenesis: decreased
  mice in which any tumor was not observed: 4 out of the 6
[9]; BYM mice, livers collected 7 to 8 weeks after administration, shRNA plasmid 20 μg HTVi
  nodules in the liver: suppressed
[9]; [11]
  serum AFP level: dramatically decreased
  weight of the liver: dramatically decreased
[9]; [12]
  GREB1 mRNA expression levels in tumors: low
  expression levels of DLK1 and TACSTD1 in tumors: the same as those of the GREB1 low group of BYM mice
